{
  "source": "patent US20230097658A1",
  "about": "“TUNABLE EXTENDED RELEASE HYDROGELS” (FRED HUTCHINSON CANCER RESEARCH CENTER, priority 2020, published 2023)",
  "molecules": {"B1": {"name": "IFNg: polarizing agent (cytokine) that induces activated phenotypes in macrophages (protein, UniProt P01579 24-161, looked up)", "Interferon gamma": "QDPYVKEAENLKKYFNAGHSDVADNGTLFLGILKNWKEESDRKIMQSQIVSFYFKLFKNFKDDQSIQKSVETIKEDMNVKFFNSNKKKRDDFEKLTNYSVTDLNVQRKAIHELIQVMAELSPAAKTGKRKRSQMLFRG"}},
  "key": {"[1]": {"tested_on": "human GB line", "details": "CXCR4 blocked; cited from earlier work"}, "[2]": {"tested_on": "PBT-05 cells", "assay": "In vitro phagocytosis assay, PBT-05 co-culture with murine bone marrow derived macrophages (BMDM)", "format": "cell-based, human", "details": "for contribution to tumor cell cytotoxicity when added to CD47 blockade: murine macrophage co-cultures, compared with CD47 blockade alone; for effect on viability of tumor cells in co-culture: polarizing agent without CD47mAb", "excerpt": "These cultures were challenged with combinations of macrophage checkpoint inhibitors (MCIs) and immune cell polarizing factors described by literature as capable of promoting an immune response against tumor cells. […] Compared to a media control, no combination of MCIs and polarizing factors caused significant cytotoxicity of PBT-05 cells cultured alone, confirming the observed cytotoxic effect is mediated by the macrophages, not the drugs themselves.\nMurine monocytes were harvested and cultured from femurs of C57BL/6 mice using RPMI (Thermofisher, 11875093) containing 10% heat deactivated FBS and 100 ng/mL mCSF1 for 7 days. Mature macrophages from these cultures were later harvested for experiments. Human monocytes were isolated from human PBMCs (Bloodworks) and purified by EasySep monocyte depletion kit (StemCell, 19355). Monocytes were cultured in RPMI containing 10% heat deactivated FBS and 25 ng/mL human CSF1 for 10 days. 50 ng/mL IL-10 was added to the cultures at day 5 to induce M2 phenotypes. Mature macrophages were later harvested for use in experiments.\nMonoclonal antibodies were purchased from Bioxcell (LEAF hCD47, BE0019) and Biolegend (LEAF hCD24mAb: 101810, MsIgG1: 400153). Phagocytosis assays were performed using the Basic Analyzer software on Essen Bio's Incucyte Zoom and Incucyte S3. 12 or 24 well plates were seeded 1:1 with GFP+ tumor lines and macrophages (murine/human) in fully supplemented Neuralcult plus various MCIs and immunomodulators described previously. Using the aforementioned definitions, the Incucyte calculated tumor cell counts based on the number of GFP+ nuclei in the wells over time."}, "[3]": {"tested_on": "PBT-05 cells", "assay": "In vitro chemotaxis assay (Incucyte transwell)", "format": "cell-based, human", "details": "patient-derived pHGG line PBT-05", "excerpt": "Locally delivered therapeutics in the brain may need to account for the tendency of remnant brain tumor cells to migrate away from the tumor margins—potentially out of reach locally delivered therapeutics. Here, artificial gradients of chemokines were used to lure tumor cells and phagocytic cells in the brain towards a static “trap” of macrophage-enhancing therapeutics to facilitate tumor cell elimination. Referring to FIGS. 4A-4D, to model this, a patient-derived, pediatric high grade glioma (pHGG) line, PBT-05, was used. […] In vitro chemotaxis assays were carried out with PBT-05 against a panel of classical chemokines cited in literature as potentially being potent against migratory brain tumor cells. […] Without wishing to be bound by theory, it is believed that PBT-05's attraction towards hCCL2 gradients may be mediated by another receptor promiscuous with this chemokine. While this receptor was not identified, mCCL2 may not bind to it or produce the same downstream signaling. However, its chemotactic sensitivity to human and murine CXCL12 may be mediated by the canonical pathway.\nChemokines were purchased from: Sigma-Aldrich (CCL2: SRP3109) and RnD Systems (CXCL12: 350-NS/CF). Cell migration assays were performed using the chemotaxis module on the Incucyte Zoom 2016 and S3 (Essen Bio). Specialized 96 well transwell plates and reservoir dishes were supplied by the manufacturer (cat no's 4582, 4600). H2B-GFP+ PBT05 lines cells were cultured in the Neuralcult media+supplement without EGF/FGF to reduce background mobility caused by these growth factors. The Incucyte software was tailored to identify GFP+ nuclei to count the number of tumor cells on top and bottom of the transwell membranes."}, "[4]": {"molecular_target": "CD47 on PBT-05 patient-derived pediatric high grade glioma cells (human) (UniProt Q08722)", "sequence (Q08722 19-323)": "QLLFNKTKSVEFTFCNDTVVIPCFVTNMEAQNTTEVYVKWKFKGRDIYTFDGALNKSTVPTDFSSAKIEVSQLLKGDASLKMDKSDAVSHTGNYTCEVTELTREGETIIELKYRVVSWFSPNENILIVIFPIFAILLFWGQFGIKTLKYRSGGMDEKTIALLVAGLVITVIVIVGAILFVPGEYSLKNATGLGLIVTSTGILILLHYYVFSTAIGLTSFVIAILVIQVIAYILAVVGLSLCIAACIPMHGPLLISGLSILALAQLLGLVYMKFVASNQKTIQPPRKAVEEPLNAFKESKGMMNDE", "assay": "cell-based or functional assay"}},
  "note": "“Also recorded” adds a separate entry of the source.",
  "data": [
    {"molecule": "c1cc(CN2CCCNCCNCCCNCC2)ccc1CN1CCCNCCNCCCNCC1", "note": "[AMD3100]", "values": [
      {"measurement": "chemotaxis towards gradients of CXCL12", "setting": "[1]", "value": "reduced chemotaxis"}
    ]},
    {"molecule": "CCOCc1nc2c(N)nc3ccccc3c2n1CC(C)(C)O", "note": "[R848, reference compound]", "values": [
      {"measurement": "contribution to tumor cell cytotoxicity when added to CD47 blockade", "setting": "[2]", "value": "did not significantly contribute to tumor cell cytotoxicity; also recorded: did not significantly increase cytotoxicity"},
      {"measurement": "effect on viability of tumor cells in co-culture", "setting": "[2]", "value": "mild effects"}
    ]},
    {"molecule": "CCL2: classical chemokine, purchased from Sigma-Aldrich (SRP3109)", "values": [
      {"measurement": "chemotaxis of PBT-05 cells (chemotactic potency)", "setting": "[3]", "value": "induced varying degrees of chemotaxis; also recorded: varying sensitivity"}
    ]},
    {"molecule": "CXCL12: classical chemokine, ligand of CXCR4, purchased from RnD Systems (350-NS/CF)", "values": [
      {"measurement": "chemotaxis of PBT-05 cells (chemotactic potency)", "setting": "[3]", "value": "effective at eliciting chemotaxis; also recorded: induced varying degrees of chemotaxis; also recorded: effective at eliciting migration; also recorded: effectively chemoattract; also recorded: varying sensitivity"}
    ]},
    {"molecule": "LEAF hCD47 monoclonal antibody (Bioxcell, BE0019)", "values": [
      {"measurement": "phagocytosis of PBT-05 cells by murine and human macrophages in co-culture (tumor cell count); antibody concentration that was effective", "setting": "[4]", "value": 1, "unit": "µg/mL"}
    ]},
    {"molecule": "hCCL2: human CCL2 chemokine", "values": [
      {"measurement": "chemotaxis of PBT-05 cells (chemotactic potency)", "setting": "[3]", "value": "greatest potency of the chemokines tested"}
    ]},
    {"molecule": "mCCL2: murine version of the chemokine CCL2", "values": [
      {"measurement": "chemotaxis of PBT-05 cells (chemotactic potency)", "setting": "[3]", "value": "unresponsive"}
    ]},
    {"molecule": "mCXCL12: murine CXCL12 chemokine", "values": [
      {"measurement": "chemotaxis of PBT-05 cells (chemotactic potency)", "setting": "[3]", "value": "lost some potency"}
    ]},
    {"molecule": "B1", "values": [
      {"measurement": "contribution to tumor cell cytotoxicity when added to CD47 blockade", "setting": "[2]", "value": "did not significantly contribute to tumor cell cytotoxicity; also recorded: did not significantly increase cytotoxicity"},
      {"measurement": "effect on viability of tumor cells in co-culture", "setting": "[2]", "value": "mild effects"}
    ]}
  ]
}
